Results reported in patent publication US11680298B2, “Method of identifying risk of cancer and therapeutic options” (Agency for Science, Technology and Research, priority 2016, dated 2023).

What was measured:
[1] = tested on: tumourspheres from both cell lines and patient-derived samples; test: S100A8/S100A9 recombinant protein rescue of pacritinib-treated tumourspheres; assay type: cell-based, human; details: recombinant protein 10 ng/ml added to culture medium; pacritinib 2.5 μM or 1 μM (method)
Procedure: (§1) Mammosphere Formation Assay PDX-derived tumoursphere cells were trypsinized and passed through 40 μm cell strainer to achieve single cell suspensions. 3×10^4 cells were seeded in 6-well ultra-low attachment plates (Corning, N.Y.; CLS3471) in serum-free DMEM/F12 supplemented with N2 and B27 (Gibco, Grand Island, N.Y.), 20 ng/ml epidermal growth factor (MACS, Auburn, Calif.), 20 ng/ml basic fibroblast growth factor (MACS, Auburn, Calif.), 0.2 μM Thiazovivin ([…] Technologies, Vancouver, BC) and penicillin/streptomycin (Gibco, Carlsbad, Calif.). For breast cancer cell lines and MCF10A cell line, 3×10^4 cells were seeded in 6-well ultra-low attachment plates in Mammocult medium (Stem Cell Technologies, Vancouver, BC, Canada), supplemented with fresh hydrocortisone (0.5 μg/ml) and heparin (1:500). Mammospheres were maintained at 37° C. with 5% CO2 and topped up with medium every 3 days. After 7-9 days, mammospheres were stained with INT (2-(4-iodophenyl)-3-(4-nitrophenyl)-5-phenyl-2H-tetrazolium chloride, Sigma-Aldrich) and quantified. Imaging and quantification were done using GelCount apparatus and associated software (Oxford Optronix, Abingdon, UK). […] Cell Proliferation Assay

MCF10A = test: Mammosphere formation assay, MCF10A; assay type: cell-based; details: long-term treatment with recombinant protein for 10 days
Procedure: as §1

[2] = tested on: K239S mutant cells (MB436, MB468); test: Tumoursphere formation of K239S mutant IRAK1 cells with recombinant protein rescue; assay type: cell-based; details: recombinant protein added to culture medium of K239S mutant IRAK1 cells
Procedure: as §1, with “Proliferation Assay […]” for “Proliferation Assay”

IRAK1 [3] = target: T1, IRAK1 (Homo sapiens, UniProt P51617); test: Western blot of phospho-IRAK1 in breast cancer cells and patient-derived tumourspheres; assay type: cell-based; parameters: endogenous in cells; host or cells: MB468 and MB231 cells; PDX-derived tumourspheres
T1 sequence (P51617 whole entry): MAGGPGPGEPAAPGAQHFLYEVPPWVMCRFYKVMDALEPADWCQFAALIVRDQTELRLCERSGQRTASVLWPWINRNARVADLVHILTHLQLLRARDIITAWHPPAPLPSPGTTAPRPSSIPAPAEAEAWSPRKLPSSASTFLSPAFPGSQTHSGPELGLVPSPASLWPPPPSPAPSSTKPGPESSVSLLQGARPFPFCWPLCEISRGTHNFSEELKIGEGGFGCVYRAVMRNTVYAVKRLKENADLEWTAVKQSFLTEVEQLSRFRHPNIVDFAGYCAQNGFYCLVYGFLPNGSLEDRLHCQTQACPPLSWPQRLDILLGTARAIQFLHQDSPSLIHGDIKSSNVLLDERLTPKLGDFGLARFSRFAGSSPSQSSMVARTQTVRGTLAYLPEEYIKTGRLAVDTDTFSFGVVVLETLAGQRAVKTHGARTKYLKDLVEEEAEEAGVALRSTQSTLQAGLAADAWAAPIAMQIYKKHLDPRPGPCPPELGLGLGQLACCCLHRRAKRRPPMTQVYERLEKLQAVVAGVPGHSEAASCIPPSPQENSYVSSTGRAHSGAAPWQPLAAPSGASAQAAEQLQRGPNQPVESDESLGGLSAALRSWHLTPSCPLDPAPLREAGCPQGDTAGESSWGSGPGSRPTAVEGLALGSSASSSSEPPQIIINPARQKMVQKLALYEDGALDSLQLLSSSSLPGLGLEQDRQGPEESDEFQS
Procedure: Recombinant IL-1p (Cat no: 200-01B) was purchased from Peprotech (Rocky Hill, N.J.). Recombinant S100A7 (Cat no: pro-149), S100A8 (Cat no: pro-800) and S100A9 (Cat no: pro-814), were purchased from ProSpec (East Brunswick, N.J.). Cells were treated with recombinant proteins at stated concentration for 20 min before harvesting for western blot. Paclitaxel (Cat no: P-9600) was purchased from LC Lab (Woburn, Mass.).
(§2) All immunoblots shown in this specification represent at least two independent experiments. In brief, cells were washed with PBS and lysed in RIPA buffer supplemented with protease and phosphatase inhibitors and further sonicated using an XL2000 Microson Ultrasonice Processor (Misonix). Equal amounts of protein extract were separated on SDS-polyacrylamided gels and transferred to PVDF membranes. Membranes were further blocked with 5% milk or BSA, and then probed with the following antibodies: anti-IRAK1 was purchased from Santa Cruz Biotechnology (Santa Cruz, Calif.; sc-7883), anti-phospho-IRAK1 (T209) was purchased from Assay Biotech (Sunnyvale, Calif.; A1074), anti-JAK2 (Danvers, Mass.; #3230) and anti-phospho-JAK2 ([…]) (Danvers, Mass.: #3774) were purchased from Cell Signaling Technology, anti-actin was purchased from Sigma Aldrich CA; A5441). For protein extraction of xenograft tumours, snap frozen samples were resuspended in RIPA buffer supplemented with protease and phosphatase inhibitors and homogenized with QIAGEN TissueLyzer II as described by the manufacturer, followed by immunoblotting as described above.

IRAK1 [4] = target: T1, IRAK1; test: as above; assay type: cell-based; parameters: endogenous in cells; host or cells: MB468 and MB231 cells; PDX-derived tumourspheres; details: MCF10A, long-term treatment with recombinant protein for 10 days
JAK2 = target: T2, JAK2 (Homo sapiens, UniProt O60674); test: Western blot of phospho-JAK2 in breast cancer cells and patient-derived tumourspheres; assay type: cell-based; details: patient-derived tumourspheres, IL-1 treatment
T2 construct: endogenous in cells; host or cells: MB468 and MB231 cells; PDX-derived tumourspheres
T2 sequence (O60674 whole entry): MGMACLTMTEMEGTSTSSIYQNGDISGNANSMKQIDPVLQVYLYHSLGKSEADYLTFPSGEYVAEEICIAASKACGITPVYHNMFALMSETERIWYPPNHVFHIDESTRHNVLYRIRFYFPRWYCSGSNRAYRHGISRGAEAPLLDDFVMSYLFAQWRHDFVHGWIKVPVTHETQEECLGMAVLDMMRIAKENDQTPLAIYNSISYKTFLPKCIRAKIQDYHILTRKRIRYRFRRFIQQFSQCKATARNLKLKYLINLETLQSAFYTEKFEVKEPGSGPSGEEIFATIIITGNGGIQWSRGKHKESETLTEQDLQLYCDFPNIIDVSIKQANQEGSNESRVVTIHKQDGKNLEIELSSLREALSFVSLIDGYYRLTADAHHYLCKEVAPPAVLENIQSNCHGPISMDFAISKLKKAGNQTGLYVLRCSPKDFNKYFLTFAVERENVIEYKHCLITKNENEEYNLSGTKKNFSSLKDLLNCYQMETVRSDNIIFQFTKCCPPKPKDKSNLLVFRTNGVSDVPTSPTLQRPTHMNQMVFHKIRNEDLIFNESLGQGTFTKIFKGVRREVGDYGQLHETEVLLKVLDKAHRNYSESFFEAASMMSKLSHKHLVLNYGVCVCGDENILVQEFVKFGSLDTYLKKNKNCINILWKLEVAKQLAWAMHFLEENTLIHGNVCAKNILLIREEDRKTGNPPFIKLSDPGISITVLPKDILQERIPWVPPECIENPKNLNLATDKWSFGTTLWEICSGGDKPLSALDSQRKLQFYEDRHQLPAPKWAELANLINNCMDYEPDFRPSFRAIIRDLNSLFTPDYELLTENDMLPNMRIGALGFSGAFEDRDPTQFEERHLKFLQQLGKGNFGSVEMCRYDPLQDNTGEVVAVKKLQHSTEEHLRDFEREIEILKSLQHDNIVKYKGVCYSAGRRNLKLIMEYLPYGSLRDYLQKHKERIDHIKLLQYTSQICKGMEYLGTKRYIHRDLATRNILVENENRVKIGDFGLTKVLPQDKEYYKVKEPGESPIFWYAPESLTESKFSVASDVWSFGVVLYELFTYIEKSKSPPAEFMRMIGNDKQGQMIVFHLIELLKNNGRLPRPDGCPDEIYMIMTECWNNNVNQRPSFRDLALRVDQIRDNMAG
Text: as §2

EL12-58 PDX tumours = test: Neoadjuvant breast cancer PDX model of tumour recurrence; assay type: in vivo, NOD-SCID mice; details: after paclitaxel-induced regression and surgery; 20 mg/kg paclitaxel, 150 mg/kg pacritinib or both
[5] = MB231 cells, recombinant protein as low as 1 ng/ml

S100A9: Recombinant S100A9 protein purchased from ProSpec (Cat no: pro-814)
rescue of pacritinib-induced tumoursphere growth inhibition [1]: effectively rescued pacritinib-induced growth inhibition
mammosphere formation (MCF10A): increased mammosphere formation
rescue of tumoursphere growth [2]: able to rescue the tumoursphere growth
IRAK1 phosphorylation (IRAK1 [3]; [5]): able to induce IRAK1 phosphorylation
IRAK1 phosphorylation (IRAK1 [4]): increased IRAK1 phosphorylation

IL-1p: Recombinant IL-1p (Cat no: 200-01B) purchased from Peprotech
JAK2 phosphorylation (JAK2): remarkably induced JAK2 phosphorylation
IRAK1 phosphorylation (IRAK1 [3]; patient-derived tumourspheres, IL-1 treatment): did not have an obvious effect on IRAK1 phosphorylation

S100A8: Recombinant S100A8 protein purchased from ProSpec (Cat no: pro-800)
rescue of pacritinib-induced tumoursphere growth inhibition [1]: effectively rescued pacritinib-induced growth inhibition
mammosphere formation (MCF10A): increased mammosphere formation
rescue of tumoursphere growth [2]: able to rescue the tumoursphere growth
IRAK1 phosphorylation (IRAK1 [3]; [5]): able to induce IRAK1 phosphorylation
IRAK1 phosphorylation (IRAK1 [4]): increased IRAK1 phosphorylation

CC(=O)O[C@H]1C(=O)[C@@]2(C)[C@H]([C@H](OC(=O)c3ccccc3)[C@]3(O)C[C@H](OC(=O)[C@H](O)[C@@H](NC(=O)c4ccccc4)c4ccccc4)C(C)=C1C3(C)C)[C@]1(OC(C)=O)CO[C@@H]1C[C@@H]2O [paclitaxel]
tumour regrowth after surgical removal of residual tumour (EL12-58 PDX tumours): slowed down

B1: S100A7: Recombinant S100A7 protein purchased from ProSpec (Cat no: pro-149) (protein, UniProt P31151 2-101, looked up)
Protein S100-A7: SNTQAERSIIGMIDMFHKYTRRDDKIEKPSLLTMMKENFPNFLSACDKKGTNYLADVFEKKDKNEDKKIDFSEFLSLLGDIATDYHKQSHGAAPCSGGSQ
IRAK1 phosphorylation (IRAK1 [3]; [5]): able to induce IRAK1 phosphorylation
